Measurements as given in DBAASP.
Values after ≈ are worked out from the molar mass of the structure shown.

Key:
Test in all cases: ≥ marks a high value that may be exact or a test limit, other limits are often not marked, values filed in µg/mL are converted to µM
[1] = tested on: Pseudomonas aeruginosa 4677
[2] = tested on: Klebsiella pneumoniae 913
[3] = tested on: Enterobacter cloacae 6780
[4] = tested on: Enterobacter cloacae 2524
[5] = tested on: Escherichia coli ATCC 25922
Escherichia coli 4530 = tested on: Escherichia coli 4530
Escherichia coli 170 = tested on: Escherichia coli 170
[6] = tested on: Klebsiella pneumoniae 1625
Acinetobacter baumannii = tested on: Acinetobacter baumannii
[7] = tested on: Bacillus subtilis IFO 3143
[8] = tested on: Staphylococcus aureus IFO 12732
[9] = tested on: Pseudomonas aeruginosa IFO 12582
[10] = tested on: Escherichia coli IFO 12734
[11] = tested on: Salmonella typhimurium KCTC 1926
[12] = tested on: Pseudomonas aeruginosa KCTC 1637
[13] = tested on: Staphylococcus aureus KCTC 1621
[14] = tested on: Streptococcus pyogenes KCTC 3096
[15] = tested on: Bacillus subtilis KCTC 1918
[16] = tested on: Escherichia coli KCTC 1682
Candida tropicalis 4345 = tested on: Candida tropicalis 4345
[17] = tested on: Klebsiella pneumoniae 202
Escherichia coli 43 = tested on: Escherichia coli 43
[18] = tested on: Klebsiella pneumoniae 305
Acinetobacter sp. 301 = tested on: Acinetobacter sp. 301
Candida albicans 4615 = tested on: Candida albicans 4615
Candida krusei ATCC 6258 = tested on: Candida krusei ATCC 6258
Candida albicans SC5314 = tested on: Candida albicans SC5314
[19] = tested on: Pseudomonas syringae pv. syringae EPS 94
Candida albicans 4748 = tested on: Candida albicans 4748
Escherichia coli 207 = tested on: Escherichia coli 207
Candida albicans = tested on: Candida albicans
[20] = tested on: Candida tropicalis ATCC 13803
Candida albicans 4762 = tested on: Candida albicans 4762
[21] = tested on: Pseudomonas aeruginosa 302
[22] = tested on: Candida glabrata ATCC 15126
[23] = tested on: Xanthomonas arboricola pv. pruni CFBP 5563
[24] = tested on: Candida parapsilosis ATCC 22019
Candida tropicalis 4912 = tested on: Candida tropicalis 4912
[25] = tested on: Xanthomonas campestris pv. Vesicatoria 2133-2
[26] = tested on: Klebsiella pneumoniae 341
[27] = tested on: Erwinia amylovora PMV 6076
Candida tropicalis = tested on: Candida tropicalis
[28] = tested on: Xanthomonas fragariae Xf349-9A
Acinetobacter sp. 322 = tested on: Acinetobacter sp. 322
[29] = tested on: Pseudomonas syringae pv. actinidiae Psa3700.1.1
Escherichia coli 225 = tested on: Escherichia coli 225
Acinetobacter sp. 312 = tested on: Acinetobacter sp. 312
Escherichia coli 35 = tested on: Escherichia coli 35
Proteus vulgaris = tested on: Proteus vulgaris
[30] = tested on: Bacillus megaterium KCTC 1096

Work on CC[C@H](C)[C@H](N)C(=O)N[C@@H](CCCCN)C(=O)N[C@@H](CO)C(=O)N[C@H](C(=O)N[C@@H](C)C(=O)N[C@@H](CO)C(=O)N[C@@H](CCCCN)C(=O)N[C@H](C(=O)N[C@@H](C)C(=O)N[C@@H](CC(N)=O)C(=O)N[C@H](C(=O)N[C@H](C(=O)N[C@@H](CCC(N)=O)C(=O)N[C@@H](CCCCN)C(=O)N[C@@H](CC(C)C)C(=O)N[C@@H](CCCCN)C(=O)N[C@@H](CCCN=C(N)N)C(=O)N[C@@H](CCCCN)C(=O)N[C@@H](C)C(=O)N[C@@H](CCCCN)C(=O)N[C@@H](CC(N)=O)C(=O)N[C@@H](C)C(=O)N[C@H](C(=O)N[C@@H](C)C(=O)O)C(C)C)C(C)C)[C@@H](C)O)C(C)C)[C@@H](C)CC [IKSIASKVANTVQKLKRKAKNAVA] yielded an MIC [1] of no less than 50 µM, an MIC [2] of no less than 50 µM and an MIC [3] of no less than 50 µM. It also gave an MIC [4] of 3.12 µM (≈ 8.01 µg/mL), an MIC [5] of 12.5 µM (≈ 32.1 µg/mL) and an MIC (Escherichia coli 4530) of no less than 50 µM. For the same compound, the MIC (Escherichia coli 170) was 1.56 µM (≈ 4 µg/mL), the MIC [6] was 6.25 µM (≈ 16 µg/mL) and the MIC (Acinetobacter baumannii) was 4.42 µM (≈ 11.3 µg/mL).

In the case of CC(C)C[C@H](NC(=O)[C@H](Cc1ccc(O)cc1)NC(=O)[C@H](C)NC(=O)[C@@H](NC(=O)[C@H](CC(C)C)NC(=O)[C@H](C)NC(=O)[C@H](C)NC(=O)[C@H](CCCCN)NC(=O)CNC(=O)[C@@H](NC(=O)[C@H](C)NC(=O)[C@H](CCCCN)NC(=O)CNC(=O)[C@@H](NC(=O)[C@H](C)NC(=O)[C@H](C)NC(=O)[C@H](C)NC(=O)[C@H](CCCCN)NC(=O)[C@H](CCCCN)NC(=O)[C@H](Cc1ccccc1)NC(=O)[C@H](Cc1ccccc1)NC(=O)[C@H](CO)NC(=O)CNC(=O)[C@H](Cc1c[nH]c2ccccc12)NC(=O)CN)C(C)C)C(C)C)[C@@H](C)O)C(=O)O [GWGSFFKKAAAVGKAVGKAALTAYL], the MIC [7] is reported as 3.18 µM (≈ 8 µg/mL), the MIC [8] is reported as 6.37 µM (≈ 16 µg/mL) and the MIC [9] is reported as 6.37 µM (≈ 16 µg/mL). For the same compound, the MIC [10] was 6.37 µM (≈ 16 µg/mL).

In the case of CC[C@H](C)[C@H](NC(=O)[C@H](CCCCN)NC(=O)[C@H](CCCCN)NC(=O)[C@H](Cc1ccccc1)NC(=O)[C@H](CC(C)C)NC(=O)[C@H](CCCCN)NC(=O)[C@H](Cc1c[nH]c2ccccc12)NC(=O)[C@@H](N)CCCCN)C(=O)N1CCC[C@H]1C(=O)N[C@@H](CCCCN)C(=O)N[C@@H](Cc1ccccc1)C(=O)N[C@@H](CC(C)C)C(=O)N[C@@H](Cc1cnc[nH]1)C(=O)N[C@@H](CO)C(=O)N[C@@H](C)C(=O)N[C@@H](CCCCN)C(=O)N[C@@H](CCCCN)C(=O)N[C@@H](Cc1ccccc1)C(N)=O [KWKLFKKIPKFLHSAKKF], the MIC [11] is reported as 0.78 µM (≈ 1.77 µg/mL), the MIC [12] is reported as 3.12 µM (≈ 7.11 µg/mL) and the MIC [13] is reported as 3.12 µM (≈ 7.11 µg/mL). The MIC [14] was 0.78 µM (≈ 1.77 µg/mL), the MIC [15] was 1.56 µM (≈ 3.55 µg/mL) and the MIC [16] was 6.25 µM (≈ 14.2 µg/mL).

Work on CC(C)C[C@H](NC(=O)[C@H](CCC(N)=O)NC(=O)[C@H](CCCCN)NC(=O)[C@H](CCCN=C(N)N)NC(=O)[C@H](Cc1ccccc1)NC(=O)[C@@H](N)Cc1c[nH]c2ccccc12)C(=O)N[C@@H](CCCCN)C(=O)N[C@@H](Cc1c[nH]c2ccccc12)C(=O)O [WFRKQLKW] yielded an MIC (Candida tropicalis 4345) of 21 µM (≈ 25 µg/mL), an MIC [17] of 6.71 µM (≈ 8 µg/mL) and an MIC (Escherichia coli 43) of 3.36 µM (≈ 4 µg/mL). The MIC [18] was 3.36 µM (≈ 4 µg/mL), the MIC (Acinetobacter sp. 301) was 2.37 µM (≈ 2.83 µg/mL) and the MIC (Candida albicans 4615) was no less than 42 µM. The MIC (Candida krusei ATCC 6258) was 21 µM (≈ 25 µg/mL), the MIC (Candida albicans SC5314) was 10.5 µM (≈ 12.5 µg/mL) and the MIC [19] was no less than 50 µM. It also gave an MIC (Candida albicans 4748) of 21 µM (≈ 25 µg/mL), an MIC (Escherichia coli 207) of 1.68 µM (≈ 2 µg/mL) and an MIC (Candida albicans) of 5.25 µM (≈ 6.25 µg/mL). The MIC [5] was 0.839 µM (≈ 1 µg/mL), the MIC [20] was 21 µM (≈ 25 µg/mL) and the MIC (Candida albicans 4762) was no less than 83.9 µM. For the same compound, the MIC [21] was 6.71 µM (≈ 8 µg/mL), the MIC [22] was 21 µM (≈ 25 µg/mL) and the MIC [23] was no less than 50 µM. It also gave an MIC [24] of 5.25 µM (≈ 6.25 µg/mL), an MIC (Candida tropicalis 4912) of 10.5 µM (≈ 12.5 µg/mL) and an MIC [25] of no less than 50 µM. The MIC [26] was 1.68 µM (≈ 2 µg/mL), the MIC [27] was no less than 50 µM and the MIC (Candida tropicalis) was no less than 83.9 µM. It also gave an MIC [28] of no less than 50 µM, an MIC (Acinetobacter sp. 322) of 3.36 µM (≈ 4 µg/mL) and an MIC [29] of no less than 50 µM. It also gave an MIC (Escherichia coli 225) of 0.839 µM (≈ 1 µg/mL), an MIC (Acinetobacter sp. 312) of 4.75 µM (≈ 5.66 µg/mL) and an MIC (Escherichia coli 35) of 6.71 µM (≈ 8 µg/mL).

With CC[C@H](C)[C@H](NC(=O)[C@H](CCCCN)NC(=O)[C@H](CCCCN)NC(=O)[C@H](Cc1ccccc1)NC(=O)[C@H](Cc1c[nH]c2ccccc12)NC(=O)[C@@H](N)CCCCN)C(=O)N1CCC[C@H]1C(=O)N[C@@H](CCCCN)C(=O)N[C@@H](Cc1ccccc1)C(=O)N[C@@H](CC(C)C)C(=O)N[C@@H](Cc1cnc[nH]1)C(=O)N[C@@H](CC(C)C)C(=O)N[C@@H](CC(C)C)C(=O)N[C@@H](CCCCN)C(=O)N[C@@H](CCCCN)C(=O)N[C@@H](Cc1ccccc1)C(N)=O [KWFKKIPKFLHLLKKF] the MIC [12] was 3.12 µM (≈ 6.56 µg/mL), the MIC [13] was 1.56 µM (≈ 3.28 µg/mL) and the MIC (Proteus vulgaris) was 3.12 µM (≈ 6.56 µg/mL). It also gave an MIC [30] of 0.78 µM (≈ 1.64 µg/mL), an MIC [15] of 0.78 µM (≈ 1.64 µg/mL) and an MIC [16] of 3.12 µM (≈ 6.56 µg/mL).
